Measured values published in US7037665B1, “Compositions comprising SNORF36 receptor compounds” (H. Lundbeck A/S, priority 1999, dated 2006).
“Also recorded” adds a separate entry of the source.

What was measured:
[1] = molecular target: T1, SNORF36a (Homo sapiens, UniProt Q9UHM6); assay: Intracellular Ca2+ mobilization (FLIPR) in human SNORF36a-transfected Cos-7 cells; type: cell-based; settings: for EC50: photobleached SNORF36a-transfected Cos-7 cells, FLIPR, n=3
T1 sequence (Q9UHM6 1-478): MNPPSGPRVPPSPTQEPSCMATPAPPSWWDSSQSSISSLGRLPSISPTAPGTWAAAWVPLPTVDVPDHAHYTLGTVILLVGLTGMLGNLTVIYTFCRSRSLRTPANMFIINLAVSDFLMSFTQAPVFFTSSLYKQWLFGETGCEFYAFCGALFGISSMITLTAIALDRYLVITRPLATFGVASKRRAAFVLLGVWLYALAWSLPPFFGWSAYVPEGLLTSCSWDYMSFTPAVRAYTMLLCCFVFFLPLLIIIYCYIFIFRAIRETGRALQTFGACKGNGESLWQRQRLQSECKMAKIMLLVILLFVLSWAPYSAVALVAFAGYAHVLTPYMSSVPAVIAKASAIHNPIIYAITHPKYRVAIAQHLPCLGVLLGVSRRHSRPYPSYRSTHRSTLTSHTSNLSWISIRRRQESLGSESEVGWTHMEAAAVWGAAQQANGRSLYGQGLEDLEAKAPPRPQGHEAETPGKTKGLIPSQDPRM
Experimental: The intracellular free calcium (Ca^2+) concentration may be measured by the Fluorescence Imager Plate Reader (FLIPR™).
Cells transfected with appropriate DNA as described earlier were plated into clear, flat-bottom, black-wall 96-well plates (Costar) at a density of 80,000-150,000 cells per well and allowed to incubate for 24 hr at 5% CO2, 37° C. Whenever necessary, the cells were placed in a waterbath maintained at 37° C. and were exposed to a lamp light (50W) placed at a distance of approximately 30 cm, 90 to 120 min before the imaging. The growth medium was aspirated and 100 μl of loading medium containing fluo-3 dye was added to each well 60 min before the imaging. The loading medium contained: Hank's BSS (without phenol red) (Gibco), 20 mM HEPES (Sigma), 0.1 or 1% BSA (Sigma), dye/pluronic acid mixture (e.g. 1 mM Flou-3, AM (Molecular Probes) and 10% pluronic acid (Molecular Probes) mixed immediately before use), and 2.5 mM probenecid (Sigma) (prepared fresh). The cells were allowed to incubate for about 1 hour at 5% CO2, 37° C.
Before or during the incubation of cells with the dye-loading medium, the test compound plate was prepared. Since retinoids are chemically unstable and can undergo rapid photoisomerization (Hu et al., 1994), care was taken to weigh, dissolve and prepare appropriate concentrations of the test compound under photographic darkroom lights. The test compounds were diluted in wash buffer (Hank's BSS (without phenol red), 20 mM HEPES, 2.5 mM probenecid) to a 4× final concentration and aliquoted into a clear v-bottom plate (Nunc). The test compounds were protected from light till their addition to cells. Following the incubation with the dye-loading medium, the cells were washed to remove the excess dye. A Denley plate washer was used to gently wash the cells 4 times and leave a 100 μl final volume of wash buffer in each well. The cell plate was placed in the center tray and the test compound plate was placed in the right tray of the FLIPR. The FLIPR software was setup for the experiment, the experiment was run and the data were collected. For the agonist experiment, the sampling rate in the FLIPR was every 1 sec for the first minute and every 2 sec for the next two minutes. In this paradigm, the test compound was added after recording base line for the first 10 sec. For the antagonist experiment, the sampling rate in the FLIPR was every 1 sec for the first minute, every 6 sec for the next 5 minutes, every 1 sec for the next one minute followed by every 2 sec next two minutes. To evaluate the antagonist activity, the test compound was added to the cells 10 sec after commencing the recording and the agonist was added at 310 sec of the recording. Baseline subtraction and negative control corrections were performed on the traces. The collected data were then analyzed using the Excel spreadsheet program.

[2] = test system: Control oocytes, not injected with SNORF36a mRNA; assay: Light-elicited currents in control Xenopus oocytes not injected with SNORF36a mRNA; type: cell-based, Xenopus laevis; settings: control uninjected oocytes pre-incubated with ligand (100 nM, 24 h), n=10 oocytes
Experimental: (§1) In the present invention, oocytes were harvested from Xenopus laevis and injected with mRNA transcripts as previously described (Quick and Lester, 1994; Smith et al., 1997). SNORF36a RNA transcripts were synthesized using the T7 polymerase (“Message Machine”, Ambion) from the plasmid BO109 linearized with NotI. Oocytes were injected with 5-25 ng synthetic RNA and incubated for 3-8 days at 17° C. Dual electrode voltage clamp (Axon Instruments Inc.) was performed using 3 M KCl-filled glass microelectrodes having resistances of 1-2 MOhm. Unless otherwise specified, oocytes were voltage clamped at a holding potential of −80 mV. During recordings, oocytes were bathed in continuously flowing (1-3 ml/min) medium containing 96 mM NaCl, 2 mM KCl, 1.8 mM CaCl2, 1 mM MgCl2, 5 mM HEPES, pH 7.5 (ND96), and the appropriate ligand.
Experiments were carried out under minimal light conditions which required compound weighing, final dilutions and oocyte recordings to be performed under photographic darkroom lights (“Brightlab Junior” safelight). In some cases, the ligands were briefly exposed to room light (5-10 min.) during the weighing procedure. For eliciting physiological responses from oocytes, the light stimulus was a 60 W tungsten lamp set at a distance of 30 cm from the oocyte. […] All values are expressed as mean ± standard error of the mean.

[3] = molecular target: T1, SNORF36a; assay: Light-elicited currents in voltage-clamped Xenopus oocytes expressing SNORF36a; type: cell-based; parameters: expressed in transfected cells; host or cells: Xenopus laevis oocytes injected with synthetic mRNA transcribed from plasmid BO109; settings: pre-incubated in the dark 24-48 h at 100 nM in ND96
Experimental: as §1
Experiments were carried out under minimal light conditions which required compound weighing, final dilutions and oocyte recordings to be performed under photographic darkroom lights (“Brightlab Junior” safelight). In some cases, the ligands were briefly exposed to room light (5-10 min.) during the weighing procedure. For eliciting physiological responses from oocytes, the light stimulus was a 60 W tungsten lamp set at a distance of 30 cm from the oocyte. Drugs were applied either by superfusion, switching from a series of gravity fed perfusion lines, or by local perfusion from a 10 μl glass capillary tube fixed at a distance of 0.5 mm from the oocyte. Experiments were carried out at room temperature. All values are expressed as mean ± standard error of the mean.

[4] = molecular target: T1, SNORF36a; assay: Inositol phosphate assay (phosphoinositide hydrolysis) in human SNORF36a-transfected Cos-7 cells; type: cell-based
Experimental: (§2) Human SNORF36a receptor-mediated activation of the inositol phosphate (IP) second messenger pathways was assessed by radiometric measurement of IP products.
(§3) Cells were plated at a density of 70,000 cells per well and allowed to incubate for 24 hours. The cells were then labeled with 0.5 μCi [^3H]myo-inositol overnight at 37° C., 5% CO2. Immediately before the assay, the medium was removed and replaced with 180 μL of Phosphate-Buffered Saline (PBS) containing 10 mM LiCl. The plates were then incubated for 20 min at 37° C., 5% CO2. Following the incubation, the cells were challenged with agonist (20 μl/well; 10× concentration) for 30 min at 37° C. and were simultaneously either exposed or not to a lamp light (50W) placed at approximately 30 cm distance from the cells. The challenge was terminated by the addition of 100 μL of 5% v/v trichloroacetic acid, followed by incubation at 4° C. for greater than 30 minutes. Total IPs were isolated from the lysate by ion exchange chromatography. Briefly, the lysed contents of the wells were transferred to a Multiscreen HV filter plate (Millipore) containing Dowex AGI-X8 (200-400 mesh, formate form). The filter plates were prepared adding 100 μL of Dowex AG1-X8 suspension (50% v/v, water: resin) to each well. […] 200 μL of scintillation cocktail was added to each well, and the radioactivity was determined by liquid scintillation counting.

[5] = test system: vector-transfected Cos-7 cells; assay: Inositol phosphate assay in empty vector-transfected Cos-7 cells; type: cell-based; settings: vector-transfected Cos-7 cells exposed to lamp light
Experimental: as §2, §3

[6] = antagonist at 10 μM, hSNORF36a-transfected Cos-7 cells, n=2

**Q.** With `CC1=C(/C=C/C(C)=C\C=C\C(C)=C\C=O)C(C)(C)CCC1` [9-cis-retinal] as the molecule, how does the EC50 [1] read?
**A.** 152 nM

**Q.** What does the source list for `CC1=C(/C=C/C(C)=C/C=C/C(C)=C/C=O)C(C)(C)CCC1` [13-cis-retinal]?
**A.** EC50 [1]: 477 nM; response to light [2]: did not respond to light; response to light stimulus after pre-incubation [3]: rapidly desensitizing Cl^− currents

**Q.** Which “response to light stimulus after pre-incubation” value [3] does the source give for `CC1=C(/C=C/C(C)=C/C=C/C(C)=C/C(=O)O)C(C)(C)CCC1` [ATRA, all-trans-retinoic acid] here?
**A.** rapidly desensitizing Cl^− currents

**Q.** How did the EC50 [1] turn out when `CC1=C(/C=C/C(C)=C/C=C/C(C)=C/C=O)C(C)(C)CCC1` [all-trans-retinal] was run?
**A.** 263 nM

**Q.** What about the 3H-IP accumulation ([4]; SNORF36a-transfected Cos-7 cells exposed to lamp light, n=2) of the same molecule?
**A.** Concentration-dependent increase

**Q.** And the 3H-IP levels ([4]; SNORF36a-transfected Cos-7 cells not exposed to light, n=1)?
**A.** did not change

**Q.** What about the 3H-IP accumulation [5] of the same molecule?
**A.** not in vector-transfected cells

**Q.** What about the response to light [2] of the same molecule?
**A.** fails to respond to light; also recorded: did not respond to light

**Q.** What about the “response to light stimulus after pre-incubation” value [3] of the same molecule?
**A.** rapidly desensitizing Cl^− currents

**Q.** Which results are given for `CC(=O)/C=C/C1=C(C)CCCC1(C)C` [β-ionone]?
**A.** nature of the antagonism ([1]; 10 μM against all-trans-retinal and 9-cis-retinal, hSNORF36a-transfected Cos-7 cells): insurmountable; antagonism of 9-cis-retinal-induced Ca2+ mobilization [1, 6]: significantly antagonized; antagonism of all-trans-retinal-induced Ca2+ mobilization [1, 6]: significantly antagonized
